Measured values published in patent publication US9458492B2, “Methods and cells for identifying RIG-I pathway regulators” (Kineta, Inc., priority 2011, dated 2016).
“Also recorded” adds a separate entry of the source.

Legend:
ISG54 promoter = ISG54 promoter luciferase reporter assay / high-throughput screen in Huh 7 cells; assay type: cell-based, human
Protocol: A compound referred to herein as “KIN101” was identified by the screening methods disclosed herein as a RIG-I modulator. Huh 7 cells stably expressing a luciferase cistron driven by the ISG54 promoter were treated with KIN101 for 18 hours and then analyzed for luciferase production. […] Huh 7 cells were stably transfected with a luciferase promoter construct driven by the consensus ISG54 promoter. The following sequence was inserted into the pGL4.17 construct (Promega) using the restriction sites indicated (underlined): Reporter cell lines were cultured under antibiotic selection until seeding. Cells were seeded in white opaque bottom 96-well tissue culture plates at a density of 1×10^4 cells/well and grown for 24 hours without antibiotic selection. […] The remainder of the wells were treated with compound diluted to a final concentration of 10 μM in media containing 0.5% DMSO. Cells were incubated with control or compound treatment for 24 hours. Steady-Glo luciferase reagent (Promega) was added at 50 μL per well, mixed thoroughly, and incubated at room temperature for 20 minutes. Luminescence was quantitated per well using a luminometer (Berthold). Confirmation of initial hits was performed in triplicate.

actin promoter = actin promoter luciferase counter screen in Huh 7 cells; assay type: cell-based, human; conditions: 10 uM
Huh7 cells = assay type: cell-based, human
Protocol: To assess a potential effect of KIN101 on cellular metabolism, Huh7 cells were grown for 48 hours with increasing doses of KIN101 and analyzed using an MTS assay (the higher the O.D. the more metabolism occurring).
Huh 7 cells were seeded in clear bottom 96-well tissue culture plates and grown for 24 hours. Seeded cells were treated with increasing concentrations of compound (0, 5, 10, 20, and 50 μM in media containing 0.5% DMSO) for 24 hours. Negative control wells contained 0.5% DMSO only and positive control for cytotoxicity was examined using an EMCV infection which causes 100% cytopathic effect. The proportion of viable cells was calculated using a cell viability assay that measures conversion of a tetrazolium compound [[…]-5-(3-carboxymethoxyphenyl)-2-(4-sulfophenyl)-2H-tetrazolium, inner salt; MTS] to a colored formazan compound in live cells. The conversion of MTS to formazan was detected by a 96-well microtiter plate reader, and the resulting optical densities (O.D.) were used directly to estimate cell viability. Cells were incubated for three hours in the presence of one-step reagent (Cell Titer One, Promega) before O.D. reading was done. Experiments were performed in triplicate.

IRF-3 [1] = experiment: Immunofluorescent assay for nuclear translocation of IRF-3 in Huh7 cells; assay type: cell-based, human; conditions: 10 μM, 18 h
Protocol: Huh 7 cells were seeded in clear bottom 96-well tissue culture plates at a density of 5×10^3 cells per well and grown for 24 hours. Cells were treated with compounds at final concentrations of 20 μM and 10 μM in media containing 0.5% DMSO. Negative control cells contain 0.5% DMSO only and positive control cells were infected with 10 HA of Sendai virus. […] Staining was performed as directed by instructions in the Cellomics translocation kit (Thermo Scientific). Rabbit polyclonal antibody against IRF-3 was used (1:400). Secondary anti-rabbit antibody conjugated to Dylight 488 (FITC equivalent) and Hoescht dye (nuclear stain) were used for detection of cellular IRF-3 and cell nuclei. Following secondary antibody incubation the monolayers were washed and left in 100 μL wash buffer for imaging. IRF-3 (FITC) and nuclear staining (DAPI) were viewed and quantitated by inverted microscope. Images were taken using MetaMorph software and saved as high resolution image files. Compound treatments were done in triplicate.

MRC5 cells = experiment: Expression microarray analysis of KIN101-treated MRC5 cells; assay type: cell-based, human; conditions: 10 μM
Protocol: Expression microarray analysis and bioinformatics were performed as follows. Total RNA isolation and mRNA amplification were performed on equal masses of total RNA from MRC5 cells treated with either DMSO, negative control, or 10 μM KIN101 at 20 hours post treatment, and from MRC5 cells infected with Sendai virus at 20 hours post infection. Probe labeling and microarray slide hybridization were performed with the Agilent Whole Human Genome microarrays, wherein each microarray contains 44K probes, corresponding to approximately 41,000 human genes. Slides were scanned with an Agilent DNA microarray scanner, and the resulting images were analyzed using Agilent Feature Extractor (AFE) version 9.5.3.1. All data were entered into a custom-designed Oracle 9i-backed relational database (Labkey, Inc., Seattle, Wash.) and uploaded into Rosetta Resolver System 7.2 (Rosetta Biosoftware) and Spotfire Decision Site 9.1.1 (Spotfire AB) for analysis and visualization. […] Functional analysis of statistically significant gene expression changes was performed with IPA® (Ingenuity Systems, Inc., Redwood City, Calif.). This software analyzes RNA expression data in the context of known biological response and regulatory networks as well as other higher-order response pathways. IPA functional analysis identified biological functions and/or diseases that were most significant among differentially regulated genes. In the functional networks, genes are represented as nodes, and the biological relationship between 2 nodes is represented as an edge (line). All edges are supported by at least 1 published reference or from canonical information stored in the Ingenuity Pathways Knowledge Base. MRC5 cells were treated with KIN101 (10 μM) or a negative control (selected from the diversity library for having no activity in screening assays) for 20 h. Sendai virus infection was used as a positive control for the up-regulation of innate immune pathways. Total RNA was purified from triplicate samples to enable statistical analysis of the microarray data.

[2] = test system: proteins downstream of IRF activation; experiment: Western blot of IRF centric gene products in treated cells; assay type: cell-based, human; conditions: after KIN101 treatment; IFN-β positive control
Description: Western blot was used to quantitate levels of IRF centric gene products in human whole cell lysates from cells treated with KIN101.

HCV-2a = HCV-2a antiviral assays in Huh 7 cells (immunofluorescence, qPCR); assay type: cell-based, Hepatitis C virus; conditions: Huh7 cells, HCV-2a MOI 1.0
Protocol: Huh 7 cells were treated with KIN101 for 24 hours and then infected with HCV-2a MOI=1.0. Cells were grown for an additional 48 hours and then stained for HCV proteins. The number of infected cells versus concentration of KIN101 added was plotted in panel A.
Huh 7 cells were pre-treated with KIN101 at 10 uM and grown for 18 hours. Cells were then infected with HCV-2a MOI=1.0 and grown for an additional 72 hours. Supernatants from infected cells were harvested, HCV RNA was purified and viral RNA quantitated utilizing Real Time PCR with HCV specific primers. Cells infected with HCV that were not KIN101-treated were utilized as a control and values set to 100% infection rate. Interferon-alpha was used as a positive control for HCV inhibition.
Huh 7 cells were infected with HCV-2a MOI=1.0 and 4 hours following infection compounds or interferon were added to infected cells. The remainder of experiment was performed as described for FIG. 7B.
Huh 7 cells were seeded as described above for the IRF-3 immunofluorescent assay. Cells were treated with 10 μM compound in media containing 0.5% DMSO. […] The number of infected cells was quantitated based on positive staining. […]
Huh 7 cells were seeded and treated as described above for the HCV antiviral assay. […] The genome copies of HCV2a in 5 μL of RNA purified from supernatants was quantitated by qPCR. […]

[3] = test system: Influenza A virus WSN strain; experiment: Influenza A antiviral assays (NP ELISA, western blot); assay type: cell-based; conditions: NP protein ELISA / western blot
RSV A2 strain = experiment: RSV-infected HeLa cell viability (trypan blue count); assay type: cell-based, respiratory syncitial virus (RSV); conditions: HeLa cells, RSV A2 MOI=1.0, treated 48 hours
Protocol: HeLa cells were infected with RSV A2 strain MOI=1.0 and were then treated with KIN101 for 48 hours. Cells were grown under normal growth conditions and cell viability was determined by counting the number of live cells and comparing drug treated and RSV infected cells to infected cells that were mock treated (no drug; vehicle alone). Cells were stained with trypan blue and counted using a hemacytometer. The number of live cells versus concentration of KIN101 added was plotted.

RSV-A2 = experiment: RSV viral RNA by Real Time PCR in HeLa supernatants; assay type: cell-based, respiratory syncitial virus (RSV); conditions: RSV-A2 MOI=1.0, 48 hours
Protocol: HeLa cells were infected with RSV-A2 MOI=1.0 and subsequently treated with KIN101 at the indicated concentrations and grown for 48 hours. Supernatants from infected cells were harvested, RSV RNA was purified and viral RNA quantitated utilizing Real Time PCR with RSV specific primers. Cells infected with RSV that were not KIN101-treated were utilized as a control.

RSV = RSV plaque formation in HeLa cells; assay type: cell-based, respiratory syncitial virus (RSV); conditions: MOI=1.0 or 0.1, 10 uM in agar overlay, 3-4 days
Protocol: HeLa cells were seeded to 90% confluency and infected with RSV at MOI=1.0 (1^3 dilution) or MOI=0.1 (1^4 dilution) for 2 hours. Virus was removed and cells were overlayed with agar in the presence of KIN101 10 uM. Infected cells were incubated for 3-4 days to allow for RSV plaque formation. Plaques were visualized by staining with crystal violet.

Dengue virus serotype 2 = experiment: Dengue virus protein western blot in HEK 293 cells; assay type: cell-based; conditions: 0.1 uM, pre-treated 18 hours, MOI=1.0, 48 hours
Protocol: HEK 293 cells were seeded to a confluency of 80% in a 6-well dish. Cells were grown for 18 hours under normal growth conditions. Cells were treated with the indicated concentration of KIN101 in media containing 0.5% DMSO for 18 hours. The next day drug was removed from treated cells and cells were infected with Dengue virus serotype 2 at an MOI=1.0; infected cells were incubated under normal growth conditions for 48 hours. For Dengue virus analysis whole cell lysates were prepared and analyzed by western blot for Dengue virus specific proteins.

IRF-3 [4] = experiment: IRF-3 nuclear translocation in cells expressing HCV NS3-4A protease (viral countermeasure); conditions: human osteosarcoma cells expressing HCV NS3-4A protease, 10 μM, 18 h
Protocol: Human osteosarcoma cells were stably transformed with the HCV NS3-4A protease coding sequence under control of a tetracycline inducible promoter. Cells were grown in the presence of tetracycline to keep expression of HCV protease off. […] Sendai virus infection was used as a control for IRF-3 translocation that was inhibited by HCV NS3-4A protease. Mock-treated cells were grown in media containing 0.5% DMSO. Images were analyzed on an Array Scan VTI to quantitate the IRF-3 staining in the nucleus and cytoplasm.
U2OS NS3/4A cells were thoroughly washed to remove Tetracycline and then seeded for the assay in the absence of Tetracycline to enable NS3/4A expression. Compound treatments were done as described above for Huh 7 cells.

[5] = 20 h, ANOVA p-value <0.01, >2 fold change

## CS(=O)(=O)Oc1ccc2c(=O)c(-c3ccc(Br)cc3)coc2c1 [KIN101]
ISG54 promoter; 20,000-member diversity library screened at 10 μM, four standard deviation threshold
  hit in high-throughput screen for ISG54 luciferase reporter activity (RIG-I agonist activity): hits
ISG54 promoter; Huh 7 cells, treated 18 hours, increasing doses
  luciferase expression under control of the ISG54 promoter: dose dependent increase in luciferase expression
Actin promoter
  expression of luciferase under control of the actin promoter: did not increase expression of luciferase
Huh7 cells
  effect on cellular metabolism (MTS assay): did not affect cellular metabolism
IRF-3 [1]
  IRF-3 nuclear translocation: induced nuclear translocation of IRF-3; also recorded: induction of IRF-3 nuclear translocation
MRC5 cells; [5]
  differentially expressed genes compared to DMSO treatment: 75 genes
  down-regulated genes compared to DMSO treatment: 11 genes
  up-regulated genes compared to DMSO treatment: 64 genes
MRC5 cells; 20 hours post treatment
  expression of immune pathways: induced expression of discrete immune pathways centered on IRF signaling
[2]
  abundance of proteins downstream of IRF activation (Western blot): increased abundance of proteins downstream of IRF activation
HCV-2a
  antiviral activity against HCV: antiviral activity
[3]
  antiviral activity against Influenza A: antiviral activity
RSV A2 strain
  protection from RSV induced cytopathic effects and cell death: protects cells from RSV induced cytopathic effects and cell death
RSV-A2
  amount of RSV viral RNA produced by infected cells: decreases the amount of RSV viral RNA produced by infected cells
RSV
  number and size of RSV induced plaques: decreases the number and size of viral induced plaques
Dengue virus serotype 2
  inhibition of Dengue virus protein accumulation: substantially complete inhibition
IRF-3 [4]
  IRF-3 nuclear translocation in the presence of viral countermeasure: induction of IRF-3 nuclear translocation
